Measured values reported in US10899766B2, “Bridged piperidine derivatives” (Hoffmann-La Roche Inc., priority 2016, dated 2021).

Test system: γ-secretase
Experiment: Cellular γ-secretase assay (inhibition of Aβ42 secretion, AlphaLisa)
Format: cell-based
Conditions: Human neuroglioma H4 cells overexpressing human APP695 Swedish double mutation; 24 hr compound incubation; secreted Aβ42 in supernatant
Experimental: Cellular γ-Secretase Assay
Human neuroglioma H4 cells overexpressing human APP695 with the Swedish double mutation (K595N/M596L) were plated at 30,000 cells/well/100 μl in 96-well plates in IMDM media containing 10% FCS, 0.2 mg/l Hygromycin B and incubated at 37° C., 5% CO2.
3-4 hr post plating, compounds are a diluted in media and 50 μl is added as 1.5-fold concentrate to achieve the final concentration. Compound incubation is performed for 24 hr. Final doses typically range from 4 μM down to 0.0013 μM in half-log steps resulting in a eight point dose response curve.
Appropriate controls using vehicle only and reference compound were applied to this assay. The final concentration of Me2SO was 0.4%.
After incubation at 37° C., 5% CO2, the supernatant was subjected to quantification of secreted Aβ42 by the means of an AlphaLisa assay kit (Human Amyloid beta 1-42 Kit: Cat # AL203C, Perkin Elmer). 20 μl of the cell culture supernatant was transferred to an assay plate. Then 10 μl of a mixture of the AlphaLisa coupled capture antibody and the biotinylated detection antibody was added and incubated for 3 hours at room temperature while softly shaking the assay plate. After a further addition of 20 μl of the Donor beads the assay plate was incubated for 30 min at room temperature and constant shaking without exposure to direct light.
The assay plate was then read on a Paradigm AlphaLisa Reader using the build-in program with excitation at 680 nm and emission at […].
The measured signals were then used to calculate IC50 values for inhibition of Aβ42 secretion by nonlinear regression fit analysis using XLfit 5.3 software (IDBS).

SMILES | EC50 [µM]
Cc1cc(N2C[C@H]3CC[C@@H](C2)[C@@H]3Nc2nc3n(n2)CCCCN3c2ccc(F)c(F)c2)ncn1 [Example 23, 4-(3,4-difluorophenyl)-N-[(1R,5S,8S)-3-(6-methylpyrimidin-4-yl)-3-azabicyclo[3.2.1]octan-8-yl]-5,6,7,8-tetrahydro-[1,2,4]triazolo[1,5-a][1,3]diazepin-2-amine] | 0.0233
COc1cc(N2C[C@H]3CC[C@@H](C2)[C@@H]3Nc2nc3n(n2)CCCCN3c2ccc(F)c(F)c2)ncn1 [Example 24, 4-(3,4-difluorophenyl)-N-[(1R,5S,8S)-3-(6-methoxypyrimidin-4-yl)-3-azabicyclo[3.2.1]octan-8-yl]-5,6,7,8-tetrahydro-[1,2,4]triazolo[1,5-a][1,3]diazepin-2-amine] | 0.0804
Fc1ccc(N2CCCCn3nc(N[C@@H]4[C@@H]5CC[C@H]4CN(c4cnnc(Cl)c4)C5)nc32)cc1F [Example 25, N-[(1R,5S,8S)-3-(6-chloropyridazin-4-yl)-3-azabicyclo[3.2.1]octan-8-yl]-4-(3,4-difluorophenyl)-5,6,7,8-tetrahydro-[1,2,4]triazolo[1,5-a][1,3]diazepin-2-amine] | 0.0234
